According to PubChem BioAssay AID1508612:

test: passive permeability, PAMPA, ADME assay (AID 1508612); conditions: pH 7.4, 30.0 min, 50.0 µM

Row | Papp | SMILES
1 | < 1 ×10⁻⁶ cm/s | CC(=O)Nc1ccc(C(=O)Nc2ccccc2N)cc1
2 | 16 ×10⁻⁶ cm/s | COc1cccc(CNc2ccc(S(=O)(=O)Nc3cccc(N4CCNCC4)c3)cc2)c1O
3 | 706 ×10⁻⁶ cm/s | Cc1ccc(NS(=O)(=O)c2ccc3c(c2)NC(=O)CO3)cc1C
4 | 97.8 ×10⁻⁶ cm/s | Cc1ccccc1C(=O)NC1CCN(c2ccc3nnc(C4CC4)n3n2)CC1
5 | > 1000 ×10⁻⁶ cm/s | O=C(c1nc(-c2cccnc2)c2ccccn12)N1CCN(c2ncccn2)CC1
6 | 85.4 ×10⁻⁶ cm/s | O=C(NCCc1nc2ccccc2n1CCO)C1CCCCC1
7 | > 1000 ×10⁻⁶ cm/s | CC1(C)CNc2cc(NC(=O)c3cccnc3NCc3ccncc3)ccc21
8 | 24.5 ×10⁻⁶ cm/s | O=C(NCCc1ccc(OCC(F)(F)F)c(OCC(F)(F)F)c1)c1cc2sccc2n1Cc1ccccc1
9 | > 1000 ×10⁻⁶ cm/s | Cc1cc(-c2nnc3n2CCCCC3)c(C)n1-c1ccc(Br)cc1
10 | > 1000 ×10⁻⁶ cm/s | Cc1nn2c(c1-c1ccccc1Oc1ccccc1)N(Cc1ccccc1O)CCC2
11 | > 1000 ×10⁻⁶ cm/s | CCOc1ccccc1C(=O)NC1CCN(c2cc(C)cc(C)c2)C1=O (stereo unspecified)
12 | 955 ×10⁻⁶ cm/s | CN(C)c1cccc(-c2cnc(N3CCC(c4ncc[nH]4)CC3)s2)c1
13 | 340 ×10⁻⁶ cm/s | COc1cccc(C(=O)Nc2nc(-c3nnn(-c4cc(C)ccc4C)c3C)ns2)c1
14 | 2.5 ×10⁻⁶ cm/s | CCN(CCCO)CCCOc1ccc2c(Nc3cc(CC(=O)Nc4cccc(F)c4)[nH]n3)ncnc2c1
15 | 791 ×10⁻⁶ cm/s | Cc1ccc(-c2nc3ccccc3o2)cc1NC(=O)COc1ccccc1
16 | 953 ×10⁻⁶ cm/s | NC(=O)C1CCN(c2nc(-c3ccc(Oc4ccccc4)cc3)cs2)CC1
17 | 7.8 ×10⁻⁶ cm/s | COc1ccccc1C(=O)Nc1nc2nc(C)cc(=O)n2[nH]1
18 | 11.6 ×10⁻⁶ cm/s | CC(=O)c1c(C)[nH]c(C(=O)Nc2cccc([S+](=O)([O-])Nc3ccccn3)c2)c1C
19 | 626 ×10⁻⁶ cm/s | CN1C(=O)c2ccccc2[S@](=O)c2ccc(C(=O)NCCc3cccs3)cc21
20 | 14.9 ×10⁻⁶ cm/s | COc1ccc(C(=O)Nc2nc(-c3ccccc3)cs2)cc1NS(=O)(=O)c1ccc(C)cc1
21 | > 1000 ×10⁻⁶ cm/s | COc1ccc(CNC(=O)c2cnc3ccccc3n2)cc1
22 | 38.1 ×10⁻⁶ cm/s | COc1ccc(C(=O)NC2CCCc3c2[nH]c2ccccc32)cc1OC (stereo unspecified)
23 | 833 ×10⁻⁶ cm/s | CCN(CC)CCCC(C)Nc1cc(/C=C/c2ccccc2Cl)nc2cc(Cl)ccc12 (stereo unspecified)
24 | 763 ×10⁻⁶ cm/s | COc1ccc(-c2ccc3ncc(Nc4ccncc4)n3n2)cc1OC
25 | 8.1 ×10⁻⁶ cm/s | CCOc1ccccc1C(=O)Nc1cccnc1C(=O)Nc1cccc(S(=O)(=O)C(F)(F)F)c1
26 | 7.01 ×10⁻⁶ cm/s | Cc1noc(C)c1Cc1ccc(C(=O)N2CCc3c(nc4cc(-c5ccccc5)[nH]n4c3=O)C2)o1

Row | Papp | SMILES
27 | 787 ×10⁻⁶ cm/s | COc1cc(Cl)c(C)cc1NS(=O)(=O)c1c(C)nc2sccn2c1=O
28 | 99.5 ×10⁻⁶ cm/s | CCOc1ccccc1C(=O)Nc1ccncc1C(=O)Nc1cccc(S(=O)(=O)C(F)(F)F)c1
29 | 455 ×10⁻⁶ cm/s | O=C1Nc2ccccc2/C1=C\c1ccc([N+](=O)[O-])cc1
30 | > 1000 ×10⁻⁶ cm/s | CC(=O)N1CCC2(CCCN(c3ccc(-c4ccccc4)cc3)C2)CC1
31 | > 1000 ×10⁻⁶ cm/s | CC1CC(C)(C)N(C(=O)CN2C(=O)c3ccccc3C2=O)c2ccccc21 (stereo unspecified)
32 | 1.2 ×10⁻⁶ cm/s | O=C1Nc2ccccc2/C1=C/c1cccc(C(=O)O)c1
33 | 740 ×10⁻⁶ cm/s | NC(=O)C1CCN(c2nc(-c3ccc4c(c3)OCO4)cs2)CC1
34 | < 1 ×10⁻⁶ cm/s | CC[C@H](NC(=O)[C@H](C)NC)C(=O)N1C[C@@H](O)C[C@H]1Cc1c(-c2[nH]c3cc(F)ccc3c2C[C@H]2C[C@H](O)CN2C(=O)[C@H](CC)NC(=O)[C@H](C)NC)[nH]c2cc(F)ccc12
35 | 537 ×10⁻⁶ cm/s | Oc1cccc(-c2nc(N3CCOCC3)c3oc4ncccc4c3n2)c1
36 | > 1000 ×10⁻⁶ cm/s | O=C1Nc2ccccc2/C1=C/c1ccnc2ccccc12
37 | 16.2 ×10⁻⁶ cm/s | COc1cc(Cl)c(C)cc1NC(=O)CSc1ncc(S(=O)(=O)c2ccc(C(C)(C)C)cc2)c(=O)[nH]1
38 | 46.2 ×10⁻⁶ cm/s | Cc1cc(NS(=O)(=O)c2ccc(C(=O)NCc3ccc(Cl)c(Cl)c3)cc2)no1
39 | 38 ×10⁻⁶ cm/s | Cc1ccc(S(=O)(=O)Nc2cnccc2C(=O)Nc2nc(-c3cccc(Cl)c3)cs2)cc1
40 | 414 ×10⁻⁶ cm/s | Cc1nc([C@](C)(O)CO)sc1-c1cnc(N)c(O[C@H](C)c2cc(F)ccc2-n2nccn2)c1
41 | 501 ×10⁻⁶ cm/s | O=C(Nc1nc(-c2ccccc2)cs1)c1ccncc1NS(=O)(=O)c1ccccc1
42 | > 1000 ×10⁻⁶ cm/s | CCc1nc2c(sc3nc4c(cc32)COC(C)(C)C4)c(=O)n1Cc1ccco1
43 | < 1 ×10⁻⁶ cm/s | NC(=O)C1CCN(c2nc(-c3ccc(OCc4ccccc4)cc3)cs2)CC1
44 | > 1000 ×10⁻⁶ cm/s | NC(=O)C1CCN(c2nc(-c3ccc4c(c3)CCO4)cs2)CC1
45 | 306 ×10⁻⁶ cm/s | O=[S+]([O-])(Nc1ccccc1)c1ccc(NCc2cccc(C(F)(F)F)c2F)cc1
46 | 9.71 ×10⁻⁶ cm/s | CC(C)c1ccc2oc3nc(N)c(C(=O)O)cc3c(=O)c2c1
47 | 30.1 ×10⁻⁶ cm/s | Fc1cc(Nc2nc(-c3ccncc3)nc3ccccc23)ccc1-c1cccc(OC(F)F)c1
48 | > 1000 ×10⁻⁶ cm/s | COc1ccc(-n2nc(C)c([C@@H]3C=C[C@@H](NCc4ccc(F)cc4)C3)c2C)cc1
49 | 84.2 ×10⁻⁶ cm/s | Cc1noc([C@@H]2CN(C(=O)c3nn(C)c4ccccc34)C[C@H]2CO)n1
50 | 153 ×10⁻⁶ cm/s | Cc1ccc(S(=O)(=O)Nc2cnccc2C(=O)Nc2nc(-c3cccc(F)c3)cs2)cc1
51 | 290 ×10⁻⁶ cm/s | O=C(Nc1nc(-c2ccccn2)cs1)c1cccc(-n2cnnn2)c1
52 | 403 ×10⁻⁶ cm/s | COc1ccc(C2c3c(oc4ccc(C)cc4c3=O)C(=O)N2CCCN2CCOCC2)cc1OC (stereo unspecified)

Row | Papp | SMILES
53 | 692 ×10⁻⁶ cm/s | NC(=O)C1CCN(c2ncc(-c3ccc4c(c3)OCO4)s2)CC1
54 | > 1000 ×10⁻⁶ cm/s | Cc1c(Cl)cccc1-n1ncc(C(=O)Nc2ccc(Br)cc2F)c1C1CCNCC1
55 | 33.5 ×10⁻⁶ cm/s | COc1ncc(-c2n[nH]c3c2CC(=O)N(c2ccccc2)C3)cn1
56 | 36.1 ×10⁻⁶ cm/s | Fc1cc(Nc2nc(-c3ccncc3)nc3ccccc23)ccc1-c1cn[nH]c1
57 | < 1 ×10⁻⁶ cm/s | Cc1cc(N)c2cc(NC(=O)Nc3ccc4nc(C)cc(N)c4c3)ccc2n1
58 | 717 ×10⁻⁶ cm/s | Cc1ccnc(NC(=S)N2CCN(c3ccc(N)cc3)CC2)c1
59 | 25.8 ×10⁻⁶ cm/s | COc1cccc(CNc2ccc(S(=O)(=O)Nc3nc(C)c(C)s3)cc2)c1O
60 | 16.1 ×10⁻⁶ cm/s | O=C(NCC1CCOCC1)C1CC(=O)N(c2n[nH]c3cc(Br)ccc23)C1 (stereo unspecified)
61 | 472 ×10⁻⁶ cm/s | CC(C)N(CCCNC(=O)Nc1ccc(C(C)(C)C)cc1)C[C@H]1O[C@@H](n2cc(Br)c3c(N)ncnc32)[C@H](O)[C@H]1O
62 | 6.35 ×10⁻⁶ cm/s | O=C(NCc1ccncc1)c1nc(-c2cccnc2)c2cnccn12
63 | 936 ×10⁻⁶ cm/s | O=C(Nc1ccc(Cl)c(S(=O)(=O)N2CCOCC2)c1)c1ccc(S(=O)(=O)N2CCOCC2)cc1
64 | 265 ×10⁻⁶ cm/s | Nc1nc2c(s1)C(c1ccc(F)c(F)c1)CC(=O)N2 (stereo unspecified)
65 | 15.5 ×10⁻⁶ cm/s | Nc1ncc(S(=O)(=O)N2CCOCC2)s1
66 | > 1000 ×10⁻⁶ cm/s | Cc1noc(C)c1-c1ccc2ncnc(NCc3ccc4[nH]ccc4c3)c2c1
67 | 372 ×10⁻⁶ cm/s | Clc1ccc(C2=Nn3c(nnc3-c3ccncc3)SC2)cc1
68 | 16.8 ×10⁻⁶ cm/s | CN(C)C(=O)c1nc(-c2ccc(S(C)(=O)=O)cc2)c2cnccn12
69 | 997 ×10⁻⁶ cm/s | Cc1ccc2nc(NC3=NC(c4[nH]ncc4Cl)C4=C(CCCC4=O)N3)oc2c1 (stereo unspecified)
70 | 48.1 ×10⁻⁶ cm/s | Cc1cc(NS(=O)(=O)c2ccc(N(C)C(=O)Cc3ccc(Cl)c(Cl)c3)cc2)no1
71 | 14.4 ×10⁻⁶ cm/s | CNc1nc(-c2ccc3c(N)n[nH]c3c2)cc(N2C[C@@H](C(=O)NC3CCCCC3)CC[C@@H]2C)n1
72 | > 1000 ×10⁻⁶ cm/s | CCOc1ccc(CCNC(=O)c2cc3ccccc3o2)cc1OCC
73 | 177 ×10⁻⁶ cm/s | Cn1nnnc1Sc1ncnc2scc(Br)c12
74 | 5.2 ×10⁻⁶ cm/s | Cc1cccc(C(=O)Nc2ccc(N3CCC(N4CCCCC4)CC3)c(C(=O)O)c2)c1
75 | > 1000 ×10⁻⁶ cm/s | COc1ccccc1OCCNCC(O)COc1cccc2[nH]c3ccccc3c12 (stereo unspecified)
76 | < 1 ×10⁻⁶ cm/s | Fc1ccc(Nc2nc(-c3ccncc3)ncc2-c2ccccc2)cc1F
77 | 246 ×10⁻⁶ cm/s | Cc1ccc(-c2nnc(N3CCC(C(N)=O)CC3)s2)cc1
78 | 188 ×10⁻⁶ cm/s | CC(C)C(=O)N1CCc2ccc(OCc3nc(C(=O)N4CCCC4)co3)cc2C1c1cccc(F)c1 (stereo unspecified)

Row | Papp | SMILES
79 | 78 ×10⁻⁶ cm/s | O=C1Nc2cc(Cl)ccc2/C1=C\c1cc(Cl)c(O)c(Cl)c1
80 | 115 ×10⁻⁶ cm/s | Cc1c(Cl)cccc1NC(=O)CNS(=O)(=O)c1cccs1
81 | > 1000 ×10⁻⁶ cm/s | Cc1cccc(-n2cnc3cc(C(=O)N4CCCC(C(F)(F)F)C4)ccc32)c1 (stereo unspecified)
82 | 8.62 ×10⁻⁶ cm/s | O=C(O)c1ccc(Nc2nc(-c3cc4ccccc4oc3=O)cs2)cc1O
83 | > 1000 ×10⁻⁶ cm/s | NC1CCN(c2nc(-c3ccc(Br)cc3)cs2)CC1
84 | 517 ×10⁻⁶ cm/s | COc1ccc(-c2noc([C@@H]3Cc4nc[nH]c4CN3C(=O)NC3CCCCC3)n2)cc1
85 | 71 ×10⁻⁶ cm/s | Cc1ccc(-c2cc(C(=O)NCc3ccc(S(N)(=O)=O)cc3)c3ccccc3n2)cc1C
86 | > 1000 ×10⁻⁶ cm/s | COc1cc(Cl)c(C)cc1Nc1c2c(nc3ccccc13)CCC2
87 | > 1000 ×10⁻⁶ cm/s | Cn1c(CN2CCCC2)nc2cc(NC(=O)COc3ccc(Cl)cc3)ccc21
88 | > 1000 ×10⁻⁶ cm/s | COC(=O)c1ccc(Oc2nc3c(c(=O)n(C)c(=O)n3C)n2CCC(C)C)cc1
89 | 834 ×10⁻⁶ cm/s | COc1ccc(CN2CCNc3cc(Nc4ccccc4)ncc3C2)cn1
90 | 169 ×10⁻⁶ cm/s | O=C1CCCC2=C1C(c1[nH]ncc1Cl)N=C(Nc1nc3cc([S+](=O)([O-])N4CCOCC4)ccc3o1)N2 (stereo unspecified)
91 | 714 ×10⁻⁶ cm/s | NC(=O)C1CCN(c2ncc(-c3ccc(Cl)cc3)s2)CC1
92 | 976 ×10⁻⁶ cm/s | Cc1cc(/C=C2/C(=O)Nc3ccccc32)cc(C)c1O
93 | 116 ×10⁻⁶ cm/s | CN(C)c1ccc(-c2cc[nH]c(=O)c2N)cc1
94 | 177 ×10⁻⁶ cm/s | CCOC(=O)C1CCN(C(=O)C2(NC(=O)Nc3ccc(F)cc3F)CCCCC2)CC1
95 | 29.9 ×10⁻⁶ cm/s | Cn1ccc2c(C(=O)NCCC(N)=O)nc(-c3cccc(CO)c3)cc21
96 | 68.7 ×10⁻⁶ cm/s | COC(=O)c1cc(Cl)ccc1NC(=O)CSc1ncc(S(=O)(=O)c2ccc(Br)cc2)c(=O)[nH]1
97 | 880 ×10⁻⁶ cm/s | c1ccc2c(Nc3ccn[nH]3)nc(-c3ccncc3)nc2c1
98 | > 1000 ×10⁻⁶ cm/s | CC1=Nc2cc(C(=O)NC3CCCC3)ccc2Sc2ccc(C)cc21
99 | 113 ×10⁻⁶ cm/s | COc1ccc(-n2nc(C3CCCN(C(=O)C4CC4)C3)[nH]c2=O)cc1 (stereo unspecified)
100 | > 1000 ×10⁻⁶ cm/s | CC1CN(c2ccc(Nc3nc(-c4ccncc4)nc4ccccc34)cc2F)CC(C)O1 (stereo unspecified)
101 | 587 ×10⁻⁶ cm/s | Cc1ccnc(NC(=S)N2CCN(c3ccc(C(F)(F)F)cc3)CC2)c1
102 | 412 ×10⁻⁶ cm/s | Cc1cc(NS(=O)(=O)c2ccc3c(c2)CCC(=O)N3)ccc1F
103 | 8.31 ×10⁻⁶ cm/s | NC1(c2ccc(NC(=O)c3ccnc(-c4cc(C(=O)O)ccn4)c3)cc2)CC1
104 | 21.4 ×10⁻⁶ cm/s | Cc1ccc(S(=O)(=O)Nc2ccc(F)cc2C(=O)Nc2nc(-c3ccccc3)cs2)cc1

Row | SMILES | Papp
105 | Nc1c(C(=O)Nc2ccc(Cl)c(C(F)(F)F)c2)sc2nc3c(cc12)N1CCC3CC1 | > 1000 ×10⁻⁶ cm/s
106 | COc1ccc(C(=O)CCN(C)C)cc1F | 410 ×10⁻⁶ cm/s
